Measurements reported in paper PMC9012132 (Journal of medicinal chemistry, 2021).
“Also recorded” adds a separate entry of the source.

What was measured:
CECR2 = conditions: cited from earlier work
4T1 breast cancer cells [1] = experiment: Inhibitor toxicity study in 4T1 cells; assay type: cell-based, mouse
4T1 breast cancer cells [2] = experiment: Combination treatment with doxorubicin in 4T1 cells; conditions: combination with 50 nM doxorubicin, 4 days
Stratifin (Sfn) = experiment: RT-qPCR of BPTF regulated genes in Eph4 cells, Sfn; conditions: 5 μM, 24 h, relative to DMSO
[3] = system: BPTF knockdown (KD) 4T1 cells; experiment: Inhibitors with doxorubicin in shRNA-mediated BPTF knockdown 4T1 cells; assay type: cell-based, mouse; conditions: inhibitor and doxorubicin, control for off-target effects
BPTF bromodomain = BPTF bromodomain (Homo sapiens, UniProt Q12830); assay type: binding; conditions: AlphaScreen
5FW-BRD4(1) = 5FW-BRD4(1) (Homo sapiens, UniProt O60885); experiment: Protein-observed fluorine; assay type: binding; conditions: qualitative
5FW-CECR2 = 5FW-CECR2 (Homo sapiens, UniProt Q9BXF3); experiment: Protein-observed fluorine; assay type: binding; conditions: qualitative
5FW-PCAF = biological target: T1, 5FW-PCAF (Homo sapiens, UniProt Q92831); experiment: Protein-observed fluorine; assay type: binding; conditions: qualitative
T1 sequence (Q92831 723-827): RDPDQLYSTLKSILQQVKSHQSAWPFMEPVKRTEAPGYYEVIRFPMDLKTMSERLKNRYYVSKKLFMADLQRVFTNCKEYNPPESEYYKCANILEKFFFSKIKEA

BRD4(1) = BRD4(1) (Homo sapiens, UniProt O60885); experiment: AlphaScreen competitive inhibition assay, BRD4; assay type: binding
BRD9 = biological target: T2, BRD9 (Homo sapiens, UniProt Q9H8M2); conditions: previously reported; cited from earlier work
T2 sequence (Q9H8M2 136-240 limits assumed): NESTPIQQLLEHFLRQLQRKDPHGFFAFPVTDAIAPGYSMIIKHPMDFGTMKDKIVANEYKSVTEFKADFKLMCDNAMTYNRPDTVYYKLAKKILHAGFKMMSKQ

PCAF = biological target: T3, PCAF (Homo sapiens, UniProt Q92831); conditions: previously reported; cited from earlier work
T3 sequence (Q92831 723-827 limits assumed): T1 sequence (Q92831 723-827)

Sequence of 5FW-CECR2 (Q9BXF3 434-538): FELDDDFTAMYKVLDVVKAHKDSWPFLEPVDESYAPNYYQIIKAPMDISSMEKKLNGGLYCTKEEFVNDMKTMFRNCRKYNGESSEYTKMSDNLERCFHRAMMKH

## CN(C)CCCOc1ccc(-c2cc(NCCCn3cccn3)nc(S(C)(=O)=O)n2)cc1 [TP-238]
CECR2
  fold higher affinity for CECR2 over BPTF: 12 fold

## COC(=O)c1cccc(NC(=O)NC2CCN(c3ccnc(Nc4ccc(F)cc4)n3)C2)c1 (stereo not shown) [AU1, reference compound]
4T1 breast cancer cells [1]
  concentration above which sharp toxicity profile starts: above 16 μM
4T1 breast cancer cells [2]
  sensitization of 4T1 cells to doxorubicin: synergize
Stratifin (Sfn)
  effect on Sfn mRNA level: upregulated Sfn but did not reach a high enough level of statistical significance
[3]
  further toxicity in BPTF knockdown cells: Additional toxicity

## CN(C)CCc1ccc(Nc2c(Cl)cnn(C)c2=O)cc1 [Compound 20, 5-chloro-4-((4-(2-(dimethylamino)ethyl)phenyl)amino)-2-methylpyridazin-3(2H)-one]
Stratifin (Sfn)
  effect on Sfn mRNA level: not significantly affected
BPTF bromodomain
  fold weaker affinity than 18: 140 fold

## Cn1ncc(Nc2ccc(CCN)cc2)c(Cl)c1=O [Compound 18, 5-((4-(2-aminoethyl)phenyl)amino)-4-chloro-2-methylpyridazin-3(2H)-one]
4T1 breast cancer cells [2]; listed as BZ1
  sensitization of 4T1 cells to doxorubicin: sensitized
5FW-BRD4(1)
  PrOF NMR chemical exchange regime with BRD4(1): fast-intermediate exchange
5FW-CECR2
  PrOF NMR chemical exchange regime with CECR2: intermediate chemical exchange
5FW-PCAF
  PrOF NMR chemical exchange regime with PCAF: slow exchange regime

## CC(C)n1ncc(Nc2ccc(CN)cc2)c(Cl)c1=O [Compound 25, 5-((4-(aminomethyl)phenyl)amino)-4-chloro-2-isopropylpyridazin-3(2H)-one]
BRD4(1)
  IC50: > 250 µM

## Cn1ncc(Nc2ccccc2)c(Cl)c1=O [Compound 6, 4-chloro-2-methyl-5-(phenylamino)pyridazin-3(2H)-one]
BRD9
  affinity for BRD9: 2.5 µM
PCAF
  affinity for PCAF: 10 µM

## CN(C)CCc1ccc(Nc2cnn(C)c(=O)c2Cl)cc1 [Compound 19, 4-chloro-5-((4-(2-(dimethylamino)ethyl)phenyl)amino)-2-methylpyridazin-3(2H)-one]
4T1 breast cancer cells [2]
  sensitization of 4T1 cells to doxorubicin: sensitized; also recorded: synergize
Stratifin (Sfn)
  effect on Sfn mRNA level: statistically significant increase
